{"source": "patent US11059795B2", "about": "“Androgen receptor modulators and methods for their use” (ESSA Pharma, Inc., priority 2018, dated 2021)", "key": {"androgen receptor (AR)": {"target": "T1, androgen receptor (AR) (Homo sapiens, UniProt P10275, T878A)", "T1 construct": "LNCaP cells were transiently transfected with the PSA (6.1 kb)-luciferase reporter for 24 h; endogenous in cells; host or cells: LNCaP", "T1 sequence (P10275 1-920 T878A)": "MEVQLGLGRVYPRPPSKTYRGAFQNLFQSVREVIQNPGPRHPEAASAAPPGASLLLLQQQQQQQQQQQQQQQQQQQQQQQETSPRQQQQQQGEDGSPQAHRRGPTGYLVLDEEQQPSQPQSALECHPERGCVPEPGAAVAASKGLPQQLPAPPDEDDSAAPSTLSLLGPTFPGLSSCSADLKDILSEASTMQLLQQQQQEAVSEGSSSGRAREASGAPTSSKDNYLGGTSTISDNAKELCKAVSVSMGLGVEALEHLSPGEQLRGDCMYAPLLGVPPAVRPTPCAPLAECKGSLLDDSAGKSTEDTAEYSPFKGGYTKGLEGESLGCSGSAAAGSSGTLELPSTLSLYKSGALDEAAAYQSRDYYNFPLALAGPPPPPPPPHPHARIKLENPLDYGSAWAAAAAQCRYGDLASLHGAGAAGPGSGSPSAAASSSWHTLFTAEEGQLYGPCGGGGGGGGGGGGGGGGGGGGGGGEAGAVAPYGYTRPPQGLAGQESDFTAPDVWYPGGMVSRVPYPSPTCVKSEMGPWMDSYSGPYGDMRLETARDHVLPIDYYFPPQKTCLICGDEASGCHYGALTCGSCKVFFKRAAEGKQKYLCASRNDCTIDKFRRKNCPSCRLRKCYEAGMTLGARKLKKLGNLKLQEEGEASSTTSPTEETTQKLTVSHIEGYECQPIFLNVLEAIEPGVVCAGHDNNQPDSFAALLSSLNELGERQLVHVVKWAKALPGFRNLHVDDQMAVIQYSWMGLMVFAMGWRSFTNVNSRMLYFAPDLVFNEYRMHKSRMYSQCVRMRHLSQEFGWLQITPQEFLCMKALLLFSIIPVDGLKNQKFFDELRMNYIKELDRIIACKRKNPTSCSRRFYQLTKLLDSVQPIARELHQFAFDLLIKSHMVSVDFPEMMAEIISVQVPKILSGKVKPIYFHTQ", "assay": "Androgen-induced PSA (6.1 kb)-luciferase reporter assay in LNCaP cells", "assay_type": "cell-based", "conditions": "LNCaP cells transfected with PSA (6.1 kb)-luciferase reporter, R1881 1 nM, 24 h", "outline": "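LNCaP cells carrying a PSA (6.1 kb) promoter-luciferase reporter with AREs; androgen-induced firefly luciferase read from lysates for 10 s. RLU normalized to protein content; IC50 calculated from the normalized data.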"}, "[1]": {"assay": "Microsomal stability assay, human liver microsomes", "assay_type": "in vitro ADME", "conditions": "for microsomal CLint at 1 μM: pH 7.4, 1 μM compound, 0.5 mg/mL protein, 37° C., read-out: HLM +/− NADPH: Clint (μL/min/mg protein); for half-life at 1 μM: pH 7.4, read-out: Liver microsome T½ (min) Human", "outline": "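Compound at 1 μM was incubated at 37° C with 0.5 mg/mL liver microsomes and 1 mM NADPH and/or 1 mM UDPGA (with alamethicin) in 100 mM potassium phosphate pH 7.4, 3 mM MgCl2. Samples were taken at 0, 15, 30 and 60 min and measured by LC/MS/MS. t½ came from compound loss relative to 0 min, and Clint was scaled with 45 mg microsomal protein/g liver.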"}}, "note": "pIC50: −log10 of the molar value. Where two headings read alike, the source gives them in different places.", "data": [{"smiles": "C[C@H](Oc1ccc(C(C)(C)c2cc(Cl)c(OCCCl)c(C#N)c2)cc1)c1ccnc(NS(C)(=O)=O)n1", "note": "(single isomer, unassigned) [Compound A170]", "values": [{"measurement": "pIC50", "setting": "androgen receptor (AR); read-out: PSA-Luc IC50 Range", "value": "5.70 to 6.30"}, {"measurement": "microsomal CLint at 1 μM", "setting": "[1]", "value": "< 12", "unit": "µL/min/mg"}]}, {"smiles": "CC(C)(c1ccc(OCc2ocnc2S(C)(=O)=O)cc1)c1cc(Cl)c(OCCCl)c(Cl)c1", "note": "[Compound A13, 5-((4-(2-(3,5-dichloro-4-(2-chloroethoxy)phenyl)propan-2-yl)phenoxy)methyl)-4-(methylsulfonyl)oxazole]", "values": [{"measurement": "pIC50", "setting": "androgen receptor (AR); read-out: PSA-Luc IC50", "value": 6.23}, {"measurement": "pIC50", "setting": "androgen receptor (AR); read-out: PSA-Luc IC50 Range", "value": "5.70 to 6.30"}, {"measurement": "microsomal CLint at 1 μM", "setting": "[1]", "value": "< 12", "unit": "µL/min/mg"}, {"measurement": "half-life at 1 μM", "setting": "[1]", "value": "> 120", "unit": "min"}]}, {"smiles": "CC(C)(c1ccc(OCc2ocnc2S(C)(=O)=O)cc1)c1cc(Cl)c(OCCCl)c(C#N)c1", "note": "[Compound A28, 3-chloro-2-(2-chloroethoxy)-5-(2-(4-((4-(methylsulfonyl)oxazol-5-yl)methoxy)phenyl)propan-2-yl)benzonitrile]", "values": [{"measurement": "pIC50", "setting": "androgen receptor (AR); read-out: PSA-Luc IC50", "value": 6.40}, {"measurement": "pIC50", "setting": "androgen receptor (AR); read-out: PSA-Luc IC50 Range", "value": "> 6.30"}, {"measurement": "microsomal CLint at 1 μM", "setting": "[1]", "value": "< 12", "unit": "µL/min/mg"}, {"measurement": "half-life at 1 μM", "setting": "[1]", "value": "> 120", "unit": "min"}]}, {"smiles": "CC(C)(c1ccc(OCc2coc(NS(C)(=O)=O)n2)cc1)c1cc(Cl)c(OCCCl)c(Cl)c1", "note": "[Compound A38, N-(4-((4-(2-(3,5-dichloro-4-(2-chloroethoxy)phenyl)propan-2-yl)phenoxy)methyl)oxazol-2-yl)methanesulfonamide]", "values": [{"measurement": "pIC50", "setting": "androgen receptor (AR); read-out: PSA-Luc IC50", "value": 6.20}, {"measurement": "pIC50", "setting": "androgen receptor (AR); read-out: PSA-Luc IC50 Range", "value": "5.70 to 6.30"}, {"measurement": "microsomal CLint at 1 μM", "setting": "[1]", "value": "< 12", "unit": "µL/min/mg"}, {"measurement": "half-life at 1 μM", "setting": "[1]", "value": "> 120", "unit": "min"}]}, {"smiles": "CC(C)(c1ccc(OCc2ccnc(NS(C)(=O)=O)n2)cc1)c1cc(Cl)c(OCCCl)c(Cl)c1", "note": "[Compound A74, N-(4-((4-(2-(3,5-dichloro-4-(2-chloroethoxy)phenyl)propan-2-yl)phenoxy)methyl)pyrimidin-2-yl)methanesulfonamide]", "values": [{"measurement": "pIC50", "setting": "androgen receptor (AR); read-out: PSA-Luc IC50", "value": 6.18}, {"measurement": "pIC50", "setting": "androgen receptor (AR); read-out: PSA-Luc IC50 Range", "value": "5.70 to 6.30"}, {"measurement": "microsomal CLint at 1 μM", "setting": "[1]", "value": "< 12", "unit": "µL/min/mg"}, {"measurement": "half-life at 1 μM", "setting": "[1]", "value": "> 120", "unit": "min"}]}, {"smiles": "CC(C)(c1ccc(OCc2ncc(S(C)(=O)=O)s2)cc1)c1cc(Cl)c(OCCCl)c(C#N)c1", "note": "[Compound A93, 3-chloro-2-(2-chloroethoxy)-5-(2-(4-((5-(methylsulfonyl)thiazol-2-yl)methoxy)phenyl)propan-2-yl)benzonitrile]", "values": [{"measurement": "pIC50", "setting": "androgen receptor (AR); read-out: PSA-Luc IC50", "value": 6.69}, {"measurement": "pIC50", "setting": "androgen receptor (AR); read-out: PSA-Luc IC50 Range", "value": "> 6.30"}, {"measurement": "microsomal CLint at 1 μM", "setting": "[1]", "value": "< 12", "unit": "µL/min/mg"}, {"measurement": "half-life at 1 μM", "setting": "[1]", "value": "> 120", "unit": "min"}]}, {"smiles": "CC(C)(c1ccc(OCc2ccnc(NS(C)(=O)=O)n2)cc1)c1cc(Cl)c(OCCCl)c(C#N)c1", "note": "[Compound A109, N-(4-((4-(2-(3-chloro-4-(2-chloroethoxy)-5-cyanophenyl)propan-2-yl)phenoxy)methyl)pyrimidin-2-yl)methanesulfonamide]", "values": [{"measurement": "pIC50", "setting": "androgen receptor (AR); read-out: PSA-Luc IC50", "value": 6.27}, {"measurement": "pIC50", "setting": "androgen receptor (AR); read-out: PSA-Luc IC50 Range", "value": "5.70 to 6.30"}, {"measurement": "microsomal CLint at 1 μM", "setting": "[1]", "value": "< 12", "unit": "µL/min/mg"}, {"measurement": "half-life at 1 μM", "setting": "[1]", "value": "> 120", "unit": "min"}]}, {"smiles": "Cc1cnc(NS(C)(=O)=O)nc1COc1ccc(C(C)(C)c2cc(Cl)c(OCCCl)c(C#N)c2)cc1", "note": "[Compound A122, N-(4-((4-(2-(3-Chloro-4-(2-chloroethoxy)-5-cyanophenyl)propan-2-yl)phenoxy)methyl)-5-methylpyrimidin-2-yl)methanesulfonamide]", "values": [{"measurement": "pIC50", "setting": "androgen receptor (AR); read-out: PSA-Luc IC50 Range", "value": "> 6.30"}, {"measurement": "microsomal CLint at 1 μM", "setting": "[1]", "value": "< 12", "unit": "µL/min/mg"}]}, {"smiles": "CCS(=O)(=O)Nc1nc(COc2ccc(C(C)(C)c3cc(Cl)c(OCCCl)c(C#N)c3)cc2)co1", "note": "[Compound A126]", "values": [{"measurement": "pIC50", "setting": "androgen receptor (AR); read-out: PSA-Luc IC50 Range", "value": "5.70 to 6.30"}, {"measurement": "microsomal CLint at 1 μM", "setting": "[1]", "value": "< 12", "unit": "µL/min/mg"}]}, {"smiles": "CCS(=O)(=O)Nc1nccc(COc2ccc(C(C)(C)c3cc(Cl)c(OCCCl)c(C#N)c3)cc2)n1", "note": "[Compound A131]", "values": [{"measurement": "pIC50", "setting": "androgen receptor (AR); read-out: PSA-Luc IC50 Range", "value": "5.70 to 6.30"}, {"measurement": "microsomal CLint at 1 μM", "setting": "[1]", "value": "< 12", "unit": "µL/min/mg"}]}, {"smiles": "CC(C)(c1ccc(OCc2nc(S(C)(=O)=O)cs2)cc1)c1cc(Cl)c(OCCCl)c(C#N)c1", "note": "[Compound A136, 3-Chloro-2-(2-chloroethoxy)-5-(2-(4-((4-(methylsulfonyl)thiazol-2-yl)methoxy)phenyl)propan-2-yl)benzonitrile]", "values": [{"measurement": "pIC50", "setting": "androgen receptor (AR); read-out: PSA-Luc IC50 Range", "value": "5.70 to 6.30"}, {"measurement": "microsomal CLint at 1 μM", "setting": "[1]", "value": "12 to 48", "unit": "µL/min/mg"}]}, {"smiles": "CC(C)(c1ccc(OC[C@H](O)CNS(C)(=O)=O)cc1)c1cc(Cl)c(OC[C@H](O)CCl)c(Cl)c1", "note": "[X, reference compound]", "values": [{"measurement": "pIC50", "setting": "androgen receptor (AR); read-out: PSA-Luc IC50", "value": 5.98}, {"measurement": "half-life at 1 μM", "setting": "[1]", "value": "> 120", "unit": "min"}]}]}
